Experimental data published in patent US20110081315A1, “NOVEL MACROCYCLIC INHIBITORS OF HEPATITIS C VIRUS REPLICATION” (INTERMUNE, INC., priority 2009, published 2011).

How the values were obtained:
[1] = test system: hepatitis C replicon; test: hepatitis C replicon EC50 assay; type: cell-based; details: Hepatitis C virus; hepatitis C replicon; read-out: EC50
In short: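 First, NS3 and NS4 are complexed; test compounds are then titrated against the complex at room temperature (23° C.) in Tris-HCl buffer, pH 7.5, supplemented with glycerol (15%), LDAO (0.6 mM), DTT (10 mM) and NS4A peptide (25 μM) to give IC50. Separately, replicon cells give EC50.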

[2] = biological target: NS3/NS4 complexes (Hepatitis C virus genotype 1a, UniProt P27958); test: NS3/NS4 inhibition assay (IC50); type: biochemical; details: NS3/NS4 activity; 23° C., 25 μM NS4A peptide
Chain of NS3/NS4 complexes (P27958 1027-1657, one chain of several): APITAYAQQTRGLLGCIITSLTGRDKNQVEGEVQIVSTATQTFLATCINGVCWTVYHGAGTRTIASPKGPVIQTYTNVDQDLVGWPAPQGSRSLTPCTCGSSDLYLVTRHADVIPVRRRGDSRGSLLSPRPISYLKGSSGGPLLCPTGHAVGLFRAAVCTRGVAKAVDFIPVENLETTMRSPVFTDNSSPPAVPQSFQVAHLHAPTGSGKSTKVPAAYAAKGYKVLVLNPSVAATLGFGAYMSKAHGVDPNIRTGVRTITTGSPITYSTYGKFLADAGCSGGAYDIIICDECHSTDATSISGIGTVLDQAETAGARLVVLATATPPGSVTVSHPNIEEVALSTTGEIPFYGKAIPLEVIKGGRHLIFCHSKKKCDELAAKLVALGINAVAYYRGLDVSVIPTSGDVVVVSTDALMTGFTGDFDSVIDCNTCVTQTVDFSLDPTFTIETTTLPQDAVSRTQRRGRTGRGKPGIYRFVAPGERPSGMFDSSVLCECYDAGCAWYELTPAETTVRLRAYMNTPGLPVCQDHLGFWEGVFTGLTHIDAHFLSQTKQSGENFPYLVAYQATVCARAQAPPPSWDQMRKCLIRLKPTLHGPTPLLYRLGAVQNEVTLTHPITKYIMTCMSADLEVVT
In short: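 Read-outs are IC50 for inhibition of the NS3/NS4 complex and EC50 in an HCV replicon system. Biochemical runs use 23° C. and a 50 mM Tris-HCl (pH 7.5) buffer with 15% glycerol, 10 mM DTT, 0.6 mM LDAO and 25 μM NS4A peptide.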

CC(C)c1nc2ccccc2nc1O[C@@H]1C[C@H]2C(=O)N[C@]3(C(=O)NS(=O)(=O)N(C)C)C[C@H]3/C=C\CCCCC[C@H](NC(=O)OC(C)(C)C)C(=O)N2C1 [Compound 305]
EC50 [1]: < 10 nM | IC50 [2]: < 10 nM

CC(C)n1c(O[C@@H]2C[C@H]3C(=O)N[C@]4(C(=O)NS(=O)(=O)N(C)C)C[C@H]4/C=C\CCCCC[C@H](NC(=O)OC(C)(C)C)C(=O)N3C2)nc2c(-c3cnc(N4CCOCC4)cn3)cccc21 [Compound 1744]
EC50 [1]: < 10 nM | IC50 [2]: < 10 nM

CC(C)n1c(O[C@@H]2C[C@H]3C(=O)N[C@]4(C(=O)NS(=O)(=O)N(C)C)C[C@H]4/C=C\CCCCC[C@H](NC(=O)OC(C)(C)C)C(=O)N3C2)nc2c(-c3nc(Cc4ccccc4)cs3)cccc21 [Compound 1768]
EC50 [1]: < 10 nM | IC50 [2]: < 10 nM

CC(C)n1c(O[C@@H]2C[C@H]3C(=O)N[C@]4(C(=O)NS(=O)(=O)C5(C)CC5)C[C@H]4/C=C\CCCCC[C@H](NC(=O)OC(C)(C)C)C(=O)N3C2)nc2c(-c3cncnc3)cccc21 [Compound 1707]
EC50 [1]: < 10 nM | IC50 [2]: < 10 nM

CC(C)c1cccc2c1nc(O[C@@H]1C[C@H]3C(=O)N[C@]4(C(=O)NS(=O)(=O)N(C)C)C[C@H]4/C=C\CCCCC[C@H](NC(=O)OC(C)(C)C)C(=O)N3C1)n2C(C)C [Compound 288]
EC50 [1]: < 10 nM | IC50 [2]: < 10 nM

CC(C)n1c(O[C@@H]2C[C@H]3C(=O)N[C@]4(C(=O)NS(=O)(=O)C5(C)CC5)C[C@H]4/C=C\CCCCC[C@H](NC(=O)OC(C)(C)C)C(=O)N3C2)nc2c(-c3csc(-c4ccccc4)n3)cccc21 [Compound 1701]
EC50 [1]: 10 to 100 nM | IC50 [2]: < 10 nM

Cc1cccc(Cc2csc(-c3cccc4c3nc(O[C@@H]3C[C@H]5C(=O)N[C@]6(C(=O)NS(=O)(=O)C7(C)CC7)C[C@H]6/C=C\CCCCC[C@H](NC(=O)OC(C)(C)C)C(=O)N5C3)n4C(C)C)n2)c1 [Compound 1718]
EC50 [1]: < 10 nM | IC50 [2]: < 10 nM

CC(C)n1c(O[C@@H]2C[C@H]3C(=O)N[C@]4(C(=O)NS(=O)(=O)C5(C)CC5)C[C@H]4/C=C\CCCCC[C@H](Nc4ccccc4)C(=O)N3C2)nc2c(-c3cccc(F)c3)cccc21 [Compound 239]
EC50 [1]: 10 to 100 nM | IC50 [2]: < 10 nM

CCNC(=O)Nc1cccc2c1nc(O[C@@H]1C[C@H]3C(=O)N[C@]4(C(=O)NS(=O)(=O)C5(C)CC5)C[C@H]4/C=C\CCCCC[C@H](Nc4ccccc4)C(=O)N3C1)n2C(C)C [Compound 1405]
EC50 [1]: 10 to 100 nM | IC50 [2]: < 10 nM

CC(C)n1c(O[C@@H]2C[C@H]3C(=O)N[C@]4(C(=O)NS(=O)(=O)N(C)C)C[C@H]4/C=C\CCCCC[C@H](NC(=O)OC(C)(C)C)C(=O)N3C2)nc2c(C(N)=O)cccc21 [Compound 277]
EC50 [1]: < 10 nM | IC50 [2]: < 10 nM

CC(C)n1c(O[C@@H]2C[C@H]3C(=O)N[C@]4(C(=O)NS(=O)(=O)N(C)C)C[C@H]4/C=C\CCCCC[C@H](NC(=O)OC(C)(C)C)C(=O)N3C2)nc2c(-c3nc(-c4ccccn4)cs3)cccc21 [Compound 1735]
EC50 [1]: < 10 nM | IC50 [2]: < 10 nM

Cc1cccc(-c2csc(-c3cccc4c3nc(O[C@@H]3C[C@H]5C(=O)N[C@]6(C(=O)NS(=O)(=O)N(C)C)C[C@H]6/C=C\CCCCC[C@H](NC(=O)OC(C)(C)C)C(=O)N5C3)n4C(C)C)n2)c1 [Compound 1750]
EC50 [1]: 10 to 100 nM | IC50 [2]: < 10 nM

CC(C)n1c(O[C@@H]2C[C@H]3C(=O)N[C@]4(C(=O)NS(=O)(=O)N(C)C)C[C@H]4/C=C\CCCCC[C@H](NC(=O)OC(C)(C)C)C(=O)N3C2)nc2c(-c3nc(C4CCC4)cs3)cccc21 [Compound 1766]
EC50 [1]: < 10 nM | IC50 [2]: < 10 nM

CC(C)n1c(O[C@@H]2C[C@H]3C(=O)N[C@]4(C(=O)NS(=O)(=O)C5(C)CC5)C[C@H]4/C=C\CCCCC[C@H](NC(=O)OC(C)(C)C)C(=O)N3C2)nc2c(-c3csc(C4CC4)n3)cccc21 [Compound 1702]
EC50 [1]: < 10 nM | IC50 [2]: < 10 nM

CC(C)n1c(O[C@@H]2C[C@H]3C(=O)N[C@]4(C(=O)NS(=O)(=O)C5CC5)C[C@H]4/C=C\CCCCC[C@H](NC(=O)OC(C)(C)C)C(=O)N3C2)nc2c(-c3nc4ccccc4s3)cccc21 [Compound 214]
EC50 [1]: < 10 nM | IC50 [2]: < 10 nM

CC(C)c1ccn(-c2cccc3c2nc(O[C@@H]2C[C@H]4C(=O)N[C@]5(C(=O)NS(=O)(=O)C6(C)CC6)C[C@H]5/C=C\CCCCC[C@H](NC(=O)OC(C)(C)C)C(=O)N4C2)n3C(C)C)n1 [Compound 1404]
EC50 [1]: < 10 nM | IC50 [2]: < 10 nM

COc1ccc2c(O[C@@H]3C[C@H]4C(=O)N[C@]5(C(=O)NS(=O)(=O)C6(C)CC6)C[C@H]5/C=C\CCCCC[C@H](Nc5cccc(C(=O)O)c5)C(=O)N4C3)cc(-c3nc(C(C)C)cs3)nc2c1C [Compound 103]
EC50 [1]: < 10 nM | IC50 [2]: < 10 nM

CC(C)c1csc(-c2cccc3c2nc(O[C@@H]2C[C@H]4C(=O)N[C@]5(C(=O)NS(=O)(=O)N(C)C)C[C@H]5/C=C\CCCCC[C@H](NC(=O)OC(C)(C)C)C(=O)N4C2)n3C(C)C)n1 [Compound 1433]
EC50 [1]: < 10 nM | IC50 [2]: < 10 nM

COc1ccc2c(O[C@@H]3C[C@H]4C(=O)N[C@]5(C(=O)NS(=O)(=O)C6(C)CC6)C[C@H]5/C=C\CCCCC[C@H](Nc5cccc(F)c5)C(=O)N4C3)nc(-c3nc(C(C)C)cs3)nc2c1C [Compound 901]
EC50 [1]: < 10 nM | IC50 [2]: < 10 nM

CC(C)n1c(O[C@@H]2C[C@H]3C(=O)N[C@]4(C(=O)NS(=O)(=O)C5(C)CC5)C[C@H]4/C=C\CCCCC[C@H](Nc4ccc(C(F)(F)F)cc4)C(=O)N3C2)nc2cncnc21 [Compound 501]
EC50 [1]: > 100 nM | IC50 [2]: < 10 nM

Cc1sc(-c2cccc3c2nc(O[C@@H]2C[C@H]4C(=O)N[C@]5(C(=O)NS(=O)(=O)C6CC6)C[C@H]5/C=C\CCCCC[C@H](NC(=O)OC(C)(C)C)C(=O)N4C2)n3C(C)C)nc1C(C)C [Compound 219]
EC50 [1]: < 10 nM | IC50 [2]: < 10 nM

COc1ccc2c(O[C@@H]3C[C@H]4C(=O)N[C@]5(C(=O)NS(=O)(=O)C6(C)CC6)C[C@H]5/C=C\CCCCC[C@H](Nc5cccc(C(=O)N6CCN(c7ccc(C)cc7)CC6)c5)C(=O)N4C3)cc(-c3nc(C(C)C)cs3)nc2c1C [Compound 123]
EC50 [1]: 10 to 100 nM | IC50 [2]: < 10 nM

CC(C)n1c(O[C@@H]2C[C@H]3C(=O)N[C@]4(C(=O)NS(=O)(=O)C5CC5)C[C@H]4/C=C\CCCCC[C@H](NC(=O)OC(C)(C)C)C(=O)N3C2)nc2c(-c3nc(C4CCCC4)cs3)cccc21 [Compound 1434]
EC50 [1]: < 10 nM | IC50 [2]: < 10 nM

CC(C)(C)OC(=O)N[C@H]1CCCCC/C=C\[C@@H]2C[C@@]2(C(=O)NS(=O)(=O)C2(C)CC2)NC(=O)[C@@H]2C[C@@H](Oc3ccc4ncn(-c5ccccc5)c4c3)CN2C1=O [Compound 299]
EC50 [1]: 10 to 100 nM | IC50 [2]: < 10 nM

Cc1oc(-c2c(F)ccc3c2nc(O[C@@H]2C[C@H]4C(=O)N[C@]5(C(=O)NS(=O)(=O)N(C)C)C[C@H]5/C=C\CCCCC[C@H](NC(=O)OC(C)(C)C)C(=O)N4C2)n3C(C)C)nc1C(C)C [Compound 1220]
EC50 [1]: < 10 nM | IC50 [2]: < 10 nM

COc1ccc2c(O[C@@H]3C[C@H]4C(=O)N[C@]5(C(=O)NS(=O)(=O)C6(C)CC6)C[C@H]5/C=C\CCCCC[C@H](Nc5cccc(C(=O)N6CCN(CCO)CC6)c5)C(=O)N4C3)cc(-c3nc(C(C)C)cs3)nc2c1C [Compound 117]
EC50 [1]: < 10 nM | IC50 [2]: < 10 nM

CC(C)n1c(O[C@@H]2C[C@H]3C(=O)N[C@]4(C(=O)NS(=O)(=O)C5(C)CC5)C[C@H]4/C=C\CCCCC[C@H](NC(=O)OC(C)(C)C)C(=O)N3C2)nc2c(-c3cnc(N4CCCC4)cn3)cccc21 [Compound 1705]
EC50 [1]: < 10 nM | IC50 [2]: < 10 nM
